# ChEMBL document CHEMBL1158191, “Two new aromatic constitutents from the rootwood of Aeschynomene mimosifolia” (1996)
# The source made the active and inactive calls. No cut-off for these calls is given here.
# Tests used:
# KB = experiment: Cytotoxicity against human KB cells; format: functional
# BC1 = experiment: Cytotoxicity against human BC1 cells; format: functional, cell-based
# Lu1 = experiment: Cytotoxicity against human Lu1 cells; format: functional, cell-based
# ZR-75-1 = experiment: Cytotoxicity against human ZR-75-1 cells; format: functional, cell-based
# U-373MG ATCC = experiment: Cytotoxicity against human U373 cells; format: functional, cell-based
# LNCaP = experiment: Cytotoxicity against human LNCAP cells; format: functional, cell-based
# [1] = Induction of DNA scission activity in at 25 ug/mL
Activity [1],SMILES,Activity (KB),Activity (BC1),Activity (Lu1),Activity (ZR-75-1),Activity (U-373MG ATCC),Activity (LNCaP),EC50 (KB; read-out: ED50 (the source's name)) [µg/mL]
,C=C[C@H](c1ccccc1)c1cc(OC)c(O)cc1OC,inactive,inactive,inactive,inactive,inactive,inactive,
inactive,CO[C@H]1CC(=O)C=CC[C@]1(O)/C=C\c1ccccc1 [MIMOSIFOLENONE],,,,,,,3.3
